Laboratory results from patent US6355799B1, “Substituted benzene compounds, process for their preparation, and herbicidal and defoliant compositions containing them” (ISK Americas Incorporated, priority 1997, dated 2002).

Assays:
Format in all cases: in vivo
[1] = tested on: johnsongrass (Sorghum halepense, SORHA); test: Post-emerge test, greenhouse herbicide activity screening; conditions: Sorghum halepense, post-emergence, 336 h, phytotoxicity rating 0-100 (0 no damage, 100 complete death), 14 days after application, read-out: Post-emerge Herbicidal Activity SORHA; for pest or weed control at 63 g/ha: 63 g ai/ha; for pest or weed control at 250 g/ha: 250 g ai/ha
Summary of the method: (§1)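 Herbicidal damage is scored 0 (none) to 100 (complete plant death) two weeks after a simulated field spray. Rates span 15–1000 g ai/ha, delivered in acetone at 187 l/ha. For post-emergence treatments, plants have 2–3 leaves and the spray carries 0.25% v/v non-ionic surfactant.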

[2] = tested on: lambsquarters (Chenopodium album, CHEAL); test: as above; conditions: Chenopodium album, post-emergence, 336 h, phytotoxicity rating 0-100 (0 no damage, 100 complete death), 14 days after application, read-out: Post-emerge Herbicidal Activity CHEAL; for pest or weed control at 63 g/ha: 63 g ai/ha; for pest or weed control at 250 g/ha: 250 g ai/ha
Summary of the method: as §1

[3] = tested on: velvetleaf (Abutilon theophrasti, ABUTH); test: as above; conditions: Abutilon theophrasti, post-emergence, 336 h, phytotoxicity rating 0-100 (0 no damage, 100 complete death), 14 days after application, read-out: Post-emerge Herbicidal Activity ABUTH; for pest or weed control at 63 g/ha: 63 g ai/ha; for pest or weed control at 250 g/ha: 250 g ai/ha
Summary of the method: as §1

[4] = tested on: barnyardgrass (Echinochloa crus-galli, ECHCG); test: as above; conditions: Echinochloa crus-galli, post-emergence, 336 h, phytotoxicity rating 0-100 (0 no damage, 100 complete death), 14 days after application, read-out: Post-emerge Herbicidal Activity ECHCG; for pest or weed control at 63 g/ha: 63 g ai/ha; for pest or weed control at 250 g/ha: 250 g ai/ha
Summary of the method: as §1

[5] = tested on: sicklepod (Cassia obtusifolia, CASOB); test: as above; conditions: Senna obtusifolia, post-emergence, 336 h, phytotoxicity rating 0-100 (0 no damage, 100 complete death), 14 days after application, read-out: Post-emerge Herbicidal Activity CASOB; for pest or weed control at 63 g/ha: 63 g ai/ha; for pest or weed control at 250 g/ha: 250 g ai/ha
Summary of the method: as §1

[6] = tested on: green foxtail (Setaria viridis, SETVI); test: as above; conditions: Setaria viridis, post-emergence, 336 h, phytotoxicity rating 0-100 (0 no damage, 100 complete death), 14 days after application, read-out: Post-emerge Herbicidal Activity SETVI; for pest or weed control at 63 g/ha: 63 g ai/ha; for pest or weed control at 250 g/ha: 250 g ai/ha
Summary of the method: as §1

[7] = tested on: ivyleaf morningglory (Ipomoea hederacea, IPOHE); test: as above; conditions: Ipomoea, post-emergence, 336 h, phytotoxicity rating 0-100 (0 no damage, 100 complete death), 14 days after application, read-out: Post-emerge Herbicidal Activity IPOHE; for pest or weed control at 63 g/ha: 63 g ai/ha; for pest or weed control at 250 g/ha: 250 g ai/ha
Summary of the method: as §1

[8] = tested on: johnsongrass (Sorghum halepense, SORHA); test: Pre-emerge test, greenhouse herbicide activity screening; conditions: pre-emerge, rated 14 days after application, 0 = no damage, 100 = complete death
Summary of the method: (§2)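 Applied at 15–1000 g ai/ha from acetone in 187 l/ha spray volume. Post-emergence applications included 0.25% v/v non-ionic surfactant and reached plants sown 8–21 days before. Pre-emergence applications were incorporated by surface watering. Efficacy or crop damage was rated on a 0–100 scale after 14 days.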

[9] = tested on: lambsquarters (Chenopodium album, CHEAL); test: as above; conditions: pre-emerge, rated 14 days after application, 0 = no damage, 100 = complete death
Summary of the method: as §2

[10] = tested on: velvetleaf (Abutilon theophrasti, ABUTH); test: as above; conditions: pre-emerge, rated 14 days after application, 0 = no damage, 100 = complete death
Summary of the method: as §2

[11] = tested on: barnyardgrass (Echinochloa crus-galli, ECHCG); test: as above; conditions: pre-emerge, rated 14 days after application, 0 = no damage, 100 = complete death
Summary of the method: as §2

[12] = tested on: sicklepod (Cassia obtusifolia, CASOB); test: as above; conditions: pre-emerge, rated 14 days after application, 0 = no damage, 100 = complete death
Summary of the method: as §2

[13] = tested on: large crabgrass (Digitaria sanguinalis, DIGSA); test: as above; conditions: pre-emerge, rated 14 days after application, 0 = no damage, 100 = complete death
Summary of the method: as §2

[14] = tested on: green foxtail (Setaria viridis, SETVI); test: as above; conditions: pre-emerge, rated 14 days after application, 0 = no damage, 100 = complete death
Summary of the method: as §2

[15] = tested on: ivyleaf morningglory (Ipomoea hederacea, IPOHE); test: as above; conditions: pre-emerge, rated 14 days after application, 0 = no damage, 100 = complete death
Summary of the method: as §2

Structure (SMILES) | pest or weed control at 63 g/ha [1] | pest or weed control at 250 g/ha [1] | pest or weed control at 63 g/ha [2] | pest or weed control at 250 g/ha [2] | pest or weed control at 63 g/ha [3] | pest or weed control at 250 g/ha [3] | pest or weed control at 63 g/ha [4] | pest or weed control at 250 g/ha [4] | pest or weed control at 63 g/ha [5] | pest or weed control at 250 g/ha [5] | pest or weed control at 63 g/ha [6] | pest or weed control at 250 g/ha [6] | pest or weed control at 63 g/ha [7] | pest or weed control at 250 g/ha [7] | Pre-emerge Herbicidal Activity SORHA (phytotoxicity rating, scale 0-100) ([8]; 63 g ai/ha) | Pre-emerge Herbicidal Activity SORHA (phytotoxicity rating, scale 0-100) ([8]; 250 g ai/ha) | Pre-emerge Herbicidal Activity CHEAL (phytotoxicity rating, scale 0-100) ([9]; 63 g ai/ha) | Pre-emerge Herbicidal Activity CHEAL (phytotoxicity rating, scale 0-100) ([9]; 250 g ai/ha) | Pre-emerge Herbicidal Activity ABUTH (phytotoxicity rating, scale 0-100) ([10]; 63 g ai/ha) | Pre-emerge Herbicidal Activity ABUTH (phytotoxicity rating, scale 0-100) ([10]; 250 g ai/ha) | further results
COc1c(Cl)cc(F)c(-n2c(=O)cc(C(F)(F)F)n(C)c2=O)c1[N+](=O)[O-] [Compound 1-5, 3-(4-chloro-6-fluoro-3-methoxy-2-nitrophenyl)-1-methyl-6-trifluoromethyl-2,4(1H, 3H)-pyrimidinedione] | 0% | 0% | 0% | 50% | 10% | 60% | 0% | 0% | 0% | 30% | 0% | 0% | 0% | 70% | 0 | 20 | 60 | 100 | 30 | 100 | Pre-emerge Herbicidal Activity ECHCG (phytotoxicity rating, scale 0-100) ([11]; 63 g ai/ha): 0; Pre-emerge Herbicidal Activity ECHCG (phytotoxicity rating, scale 0-100) ([11]; 250 g ai/ha): 0; Pre-emerge Herbicidal Activity CASOB (phytotoxicity rating, scale 0-100) ([12]; 63 g ai/ha): 0; Pre-emerge Herbicidal Activity CASOB (phytotoxicity rating, scale 0-100) ([12]; 250 g ai/ha): 0; Pre-emerge Herbicidal Activity DIGSA (phytotoxicity rating, scale 0-100) ([13]; 63 g ai/ha): 0; Pre-emerge Herbicidal Activity DIGSA (phytotoxicity rating, scale 0-100) ([13]; 250 g ai/ha): 70; Pre-emerge Herbicidal Activity SETVI (phytotoxicity rating, scale 0-100) ([14]; 63 g ai/ha): 0; Pre-emerge Herbicidal Activity SETVI (phytotoxicity rating, scale 0-100) ([14]; 250 g ai/ha): 90; Pre-emerge Herbicidal Activity IPOHE (phytotoxicity rating, scale 0-100) ([15]; 63 g ai/ha): 0; Pre-emerge Herbicidal Activity IPOHE (phytotoxicity rating, scale 0-100) ([15]; 250 g ai/ha): 10
Cn1c(C(F)(F)F)cc(=O)n(-c2c(F)cc(Cl)c(O)c2N)c1=O [Compound 1-16, 3-(2-amino-4-chloro-6-fluoro-3-hydroxyphenyl)-1-methyl-6-trifluoromethyl-2,4(1H, 3H)-pyrimidinedione] | 0% | 0% | 30% | 60% | 30% | 50% | 0% | 0% | 0% | 0% | 0% | 0% | 20% | 50% | 0 | 0 | 0 | 70 | 0 | 0 | Pre-emerge Herbicidal Activity ECHCG (phytotoxicity rating, scale 0-100) ([11]; 63 g ai/ha): 0; Pre-emerge Herbicidal Activity ECHCG (phytotoxicity rating, scale 0-100) ([11]; 250 g ai/ha): 0; Pre-emerge Herbicidal Activity CASOB (phytotoxicity rating, scale 0-100) ([12]; 63 g ai/ha): 0; Pre-emerge Herbicidal Activity CASOB (phytotoxicity rating, scale 0-100) ([12]; 250 g ai/ha): 0; Pre-emerge Herbicidal Activity DIGSA (phytotoxicity rating, scale 0-100) ([13]; 63 g ai/ha): 0; Pre-emerge Herbicidal Activity DIGSA (phytotoxicity rating, scale 0-100) ([13]; 250 g ai/ha): 0; Pre-emerge Herbicidal Activity SETVI (phytotoxicity rating, scale 0-100) ([14]; 63 g ai/ha): 0; Pre-emerge Herbicidal Activity SETVI (phytotoxicity rating, scale 0-100) ([14]; 250 g ai/ha): 0; Pre-emerge Herbicidal Activity IPOHE (phytotoxicity rating, scale 0-100) ([15]; 63 g ai/ha): 0; Pre-emerge Herbicidal Activity IPOHE (phytotoxicity rating, scale 0-100) ([15]; 250 g ai/ha): 0
